Experimental data from publication PMC10244169, “Psychedelics promote plasticity by directly binding to BDNF receptor TrkB” (Nature Neuroscience, 2023).

Columns and labels:
TrkB pY816 = assay: ELISA of TrkB phosphorylation (pY816) in neuronal cultures; format: cell-based, rat; conditions: cortical and hippocampal cultures
Method: (§1) The phosphorylation of TrkB (pY816) and interaction with PLCγ1 were assessed by enzyme-linked immunosorbent assay (ELISA) as previously described[11],[80],[81] with minor modifications. Briefly, white 96-well plates (PerkinElmer, OptiPlate 96F-HB) were precoated with goat anti-TrkB (R&D systems, AF1494; 1:500, overnight, 4 °C) antibody in carbonate buffer (pH 9.8) and blocked with 3% BSA in PBS with 0.1% Tween-20 (PBS-T) for 2 h at room temperature. […] Samples were incubated overnight at 4 °C, and 24 h later plates were washed with PBS-T and incubated with either rabbit anti-phospho-TrkB(Tyr816) (Cell Signaling Technology, 4168S; 1:2,000), rabbit anti-PLCγ1 (Cell Signaling Technologies, 5690S; 1:2,000) or rabbit anti-Trk (Cell Signaling Technologies, 92991; 1:2,000) antibodies overnight at 4 °C. After washing with PBS-T, plates were incubated with HRP-conjugated goat anti-rabbit (Bio-Rad, 170–5046; 1:5,000, 1 h, room temperature) antibody, followed by more washing with PBS-T. Finally, the chemiluminescent signal was read after brief incubation with Pierce ECL substrate (Thermo Fisher Scientific, 32106). Luminescence from blank wells that contained all reagents but the sample lysates was used to determine background signal.

BDNF protein = BDNF protein ELISA in cortical neurons; format: cell-based, rat; conditions: for BDNF protein, group mean (5g): LSD 100 nM, vehicle 100
Method: To determine BDNF protein concentrations, ELISA was run as previously described[83] with minor modifications. […] Samples were diluted in Hanks buffer (125 mM NaCl, 5 mM KCl, 1.2 mM NaH2PO4, 1 mM CaCl2, 1.2 mM MgCl2, 1 μM ZnCl2, 10 mM glucose, 25 mM HEPES and 0.25% BSA, pH 7.4). Samples and BDNF standards (10–1,000 pg ml^−1, Peprotech) were acidified at room temperature to pH 3 by adding 1 M HCl and neutralized to pH 7 after 15 min with 1 M NaOH. A Maxisorb Nunc ELISA plate (Thermo Scientific) previously coated with a primary BDNF antibody (1:1,000 in carbonate buffer, overnight, 4 °C) and blocked (2% BSA and 0.1% Triton X-100 in Hanks buffer, 2 h, room temperature). Then, 170 µl of samples and standards were added to the plate with 30 µl of the secondary POD-conjugated BDNF antibody (1:1,000 in 6.66% BSA and 0.66% Triton X-100 in Hanks buffer). The BDNF antibodies were received from Roche and have been previously described. After incubating overnight at 4 °C the plate was washed with PBS-T. BM Blue POD substrate (Roche, 54827-17-1) was added to each well, and the colorimetric reaction was stopped after 20 min by adding 50 µl of 1 M H2SO4. Absorbance was measured at […] with a plate reader (Varioskan Flash, Thermo Scientific).

mouse TrkB = target: T1, mouse TrkB (Mus musculus, UniProt P15209); assay: ^3H-LSD saturation binding to immunoprecipitated TrkB
T1 construct: from tissue; host or cells: mouse embryo (E18) brain
T1 sequence (P15209 32-821): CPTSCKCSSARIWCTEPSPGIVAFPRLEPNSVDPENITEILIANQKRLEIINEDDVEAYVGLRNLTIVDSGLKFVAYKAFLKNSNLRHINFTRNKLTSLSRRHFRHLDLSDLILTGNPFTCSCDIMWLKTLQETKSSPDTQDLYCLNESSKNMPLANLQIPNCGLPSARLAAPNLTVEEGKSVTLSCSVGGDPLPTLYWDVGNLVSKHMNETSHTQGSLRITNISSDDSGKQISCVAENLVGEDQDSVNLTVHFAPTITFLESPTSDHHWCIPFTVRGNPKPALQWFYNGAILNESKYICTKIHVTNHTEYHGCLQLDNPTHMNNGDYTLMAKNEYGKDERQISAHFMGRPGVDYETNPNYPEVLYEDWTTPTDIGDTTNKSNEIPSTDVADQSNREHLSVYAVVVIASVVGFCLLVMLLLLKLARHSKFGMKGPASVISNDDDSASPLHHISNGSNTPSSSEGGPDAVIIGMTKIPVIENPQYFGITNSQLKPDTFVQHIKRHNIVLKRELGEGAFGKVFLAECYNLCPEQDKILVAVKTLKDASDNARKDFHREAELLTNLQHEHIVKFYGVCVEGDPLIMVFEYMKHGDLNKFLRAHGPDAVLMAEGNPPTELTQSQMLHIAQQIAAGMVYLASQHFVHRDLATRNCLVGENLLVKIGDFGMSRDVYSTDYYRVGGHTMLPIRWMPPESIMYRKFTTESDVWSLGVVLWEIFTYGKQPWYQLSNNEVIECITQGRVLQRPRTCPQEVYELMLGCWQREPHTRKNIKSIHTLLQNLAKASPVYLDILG
Method: (§2) Binding assays were performed as previously described with minor modifications. […] Samples from mouse embryo (E18) brains were also lysed, vortexed, sonicated and centrifuged for binding assays. Plates were then washed with PBS. […] For the competition binding assays with biotinylated R,R-HNK, the amino-biotinylation of R,R-HNK was performed using a commercial kit (Thermo Scientific, EZ-Link NHS-PEG4 Biotinylation Kit, 21455) and the reaction monitored by MS. A mixture of biotinylated R,R-HNK (10 µM) and unlabeled compounds (1 pM to 10 µM) in PBS was added to the 96-well plates containing the immunoprecipitated TrkB and incubated for 1 h at room temperature. […] Luminescence was determined via streptavidin conjugated with horseradish peroxidase (HRP; Thermo Fisher Scientific, 21126; 1:5,000, 1 h at room temperature) in reaction with the Pierce ECL substrate (Thermo Fisher Scientific, 32106). Luminescence from blank wells that contained all reagents but the sample lysates was used to determine nonspecific binding. To obtain the binding curves, results from binding assays were fitted to the equation of specific binding with Hill slope from GraphPad Prism 9.2. To calculate koff values, results were fitted to the equation of dissociation of one phase exponential decay from GraphPad Prism 9.2.

TrkB Y433F = target: T2, TrkB Y433F (Rattus norvegicus, UniProt Q63604, Y433F); assay: ^3H-LSD saturation binding, TrkB mutant
T2 construct: expressed in transfected cells; host or cells: HEK293T
T2 sequence (Q63604 32-821 Y433F): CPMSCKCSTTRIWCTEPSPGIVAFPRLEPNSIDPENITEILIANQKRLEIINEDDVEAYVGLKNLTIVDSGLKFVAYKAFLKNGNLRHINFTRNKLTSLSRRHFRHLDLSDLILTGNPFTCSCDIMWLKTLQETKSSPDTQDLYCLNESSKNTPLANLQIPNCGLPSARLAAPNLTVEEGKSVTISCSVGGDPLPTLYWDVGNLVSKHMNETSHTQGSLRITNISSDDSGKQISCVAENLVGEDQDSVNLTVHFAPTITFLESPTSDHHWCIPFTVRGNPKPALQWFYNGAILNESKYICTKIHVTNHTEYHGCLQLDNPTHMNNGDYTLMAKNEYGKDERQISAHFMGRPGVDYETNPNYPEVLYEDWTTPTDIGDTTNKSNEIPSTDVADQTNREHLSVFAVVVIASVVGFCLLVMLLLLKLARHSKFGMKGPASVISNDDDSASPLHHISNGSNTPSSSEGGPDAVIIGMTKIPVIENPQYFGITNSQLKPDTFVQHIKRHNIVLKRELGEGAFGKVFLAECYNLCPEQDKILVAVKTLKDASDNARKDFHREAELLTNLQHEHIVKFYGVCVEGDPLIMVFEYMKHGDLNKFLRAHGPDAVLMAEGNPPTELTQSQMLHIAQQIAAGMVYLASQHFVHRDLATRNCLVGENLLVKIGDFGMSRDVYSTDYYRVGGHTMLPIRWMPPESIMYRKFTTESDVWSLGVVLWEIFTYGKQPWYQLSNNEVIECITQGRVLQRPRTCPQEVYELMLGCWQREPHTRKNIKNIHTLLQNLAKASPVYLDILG
Method: as §2

TrkB V437A = target: T3, TrkB V437A (Rattus norvegicus, UniProt Q63604, V437A); assay: ^3H-LSD saturation binding, TrkB mutant
T3 construct: expressed in transfected cells; host or cells: HEK293T
T3 sequence (Q63604 32-821 V437A): as the sequence (Q63604 32-821 Y433F) above, with F402Y, V406A counted along it
Method: as §2

TrkB = assay: Total TrkB expression in PFC and hippocampus after single LSD injection; format: in vivo, mouse; conditions: PFC or hippocampus, WT or Y433F^+/− mice
Method: as §1

primary visual cortex = assay: Ocular dominance plasticity after monocular deprivation; format: in vivo, mouse; conditions: ext fig 7b
Method: Female and male mice were 17 weeks old at the time of monocular deprivation, since the physiological critical period in the binocular region of the visual cortex is closed by then[85]. […] Briefly, mice were injected with an anesthetic mixture containing 0.05 mg kg^−1 fentanyl (Hameln), 5 mg kg^−1 midazolam (Hameln) and 0.5 mg kg^−1 medetomidine (Orion Pharma) diluted in saline. Eyes were protected from drying with eye-protective gel (Alcon), and the head was shaved and fixed in a stereotaxic frame with a heating pad maintained at 37 °C. A mixture of lidocaine and adrenaline (Orion Pharma) was applied locally on the head, and the scalp above the visual cortex was cut. The periosteum was removed gently, and the skull was rapidly cleaned from fat with acetone. The surface of the skull was covered with a thin layer of cyanoacrylate glue (Henkel, Loctite 401), followed by two layers of acryl, obtained by mixing colorless acrylic powder (EUBECOS) with liquid methacrylate (Densply). […] The signal was recorded from one eye at a time, with the other eye covered by a patch. […] The OD score as (C − I)/(C + I) was calculated, and the ocular dominance index (ODI) was determined as the mean of the OD score for all responsive pixels, as described by Cang et al.[89].

Ntrk2 mRNA = assay: RT–qPCR of Ntrk2 mRNA in cortical neurons; conditions: after LSD treatment
Bdnf mRNA = assay: RT–qPCR of Bdnf mRNA in cortical neurons; conditions: for Bdnf mRNA, group mean (5f): LSD 100 nM
TrkA.TM chimera = assay: ^3H-LSD saturation binding, TrkB with TMD of TrkA; conditions: TMD of TrkB replaced by that of TrkA
Method: as §2

rat TrkB (WT) = target: T4, rat TrkB (WT) (Rattus norvegicus, UniProt Q63604); assay: ^3H-LSD saturation binding to TrkB immunoprecipitated from HEK293T lysates
T4 construct: expressed in transfected cells; host or cells: HEK293T
T4 sequence (Q63604 32-821): as the sequence (Q63604 32-821 Y433F) above, with F402Y counted along it
Method: as §2

human TrkB = target: T5, human TrkB (Homo sapiens, UniProt Q16620); assay: as above
T5 construct: GFP; expressed in transfected cells; host or cells: HEK293T
T5 sequence (Q16620 32-822): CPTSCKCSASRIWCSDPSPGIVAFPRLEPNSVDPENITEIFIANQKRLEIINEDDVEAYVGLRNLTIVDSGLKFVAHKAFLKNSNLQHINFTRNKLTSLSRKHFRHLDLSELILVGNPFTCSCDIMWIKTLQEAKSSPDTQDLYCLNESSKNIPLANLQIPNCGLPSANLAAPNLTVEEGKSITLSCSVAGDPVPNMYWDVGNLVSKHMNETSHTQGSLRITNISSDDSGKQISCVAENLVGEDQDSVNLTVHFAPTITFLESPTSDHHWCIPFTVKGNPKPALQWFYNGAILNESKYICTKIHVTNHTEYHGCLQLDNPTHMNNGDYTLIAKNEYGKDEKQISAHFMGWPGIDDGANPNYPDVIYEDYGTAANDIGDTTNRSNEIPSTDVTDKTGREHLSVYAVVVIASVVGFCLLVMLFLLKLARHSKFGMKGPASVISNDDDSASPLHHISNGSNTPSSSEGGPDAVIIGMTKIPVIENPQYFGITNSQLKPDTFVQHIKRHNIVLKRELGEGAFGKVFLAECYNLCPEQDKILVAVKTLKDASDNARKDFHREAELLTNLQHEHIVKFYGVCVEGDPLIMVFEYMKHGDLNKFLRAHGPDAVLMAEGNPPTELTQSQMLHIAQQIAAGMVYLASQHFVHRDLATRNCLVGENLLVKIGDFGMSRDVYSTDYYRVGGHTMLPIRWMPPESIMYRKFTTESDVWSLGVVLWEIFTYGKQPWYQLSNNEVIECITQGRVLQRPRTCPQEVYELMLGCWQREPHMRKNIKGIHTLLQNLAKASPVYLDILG
Method: as §2

CCN(CC)C(=O)C1C=C2c3cccc4[nH]cc(c34)CC2N(C)C1 (stereo not shown) [LSD, lysergic acid diethylamide]
TrkB phosphorylation (pY816) (TrkB pY816): increases phosphorylation of TrkB tyrosine 816 (pY816) | BDNF protein, group mean (5g) (BDNF protein; 5 min): 101.1 | BDNF protein, group mean (5g) (BDNF protein; 1 h): 105.6 | BDNF protein, group mean (5g) (BDNF protein; 24 h): 146.4 | BDNF protein, group mean (5g) (BDNF protein; 72 h): 104.8 | BDNF protein levels (BDNF protein; after LSD treatment): elevated at 24 h | Kd (mouse TrkB): 0.425 ± 0.296 nM | Bmax (mouse TrkB; ^3H-LSD saturation, mouse TrkB): 7.388 ± 0.771 pmol mg^−1 protein | Bmax (specific binding with Hill slope, best-fit) (mouse TrkB; ext fig 1b, TRKB.wt, n=2): 117.1 | h (Hill slope, best-fit) (mouse TrkB; ext fig 1b, TRKB.wt, n=2): 0.5552 | Kd (TrkB Y433F; Kd (best-fit, 1a), Y433F, unit inferred): 24.6 nM | Kd (TrkB Y433F; Kd, ^3H-LSD saturation, Y433F): 24.6 ± 4.68 nM | Bmax (best-fit, 1a) (TrkB Y433F; Y433F): 91.95 | h (best-fit, 1a) (TrkB Y433F; Y433F): 1.98 | LSD binding (TrkB Y433F; Y433F point mutation): impairs LSD binding | Bmax (best-fit, 1a) (TrkB V437A): 88.07 | h (best-fit, 1a) (TrkB V437A): 1.581 | Kd (TrkB V437A; Kd (best-fit, 1a), unit inferred): 25.9 nM | Kd (TrkB V437A; Kd, ^3H-LSD saturation): 25.9 ± 10.6 nM | total TrkB expression (TrkB): remain unaffected | Mean ± SEM of column B (IOS II) (primary visual cortex; IOS II (second imaging session), n=10 mice): 0.0300 ± 0.02329, n=10 | Difference between means (IOS II vs. IOS I) (primary visual cortex; column B IOS II vs. column A IOS I, unpaired t test): -0.1640 ± 0.02794 | Ntrk2 mRNA levels (Ntrk2 mRNA): without any changes in Ntrk2 mRNA levels | Bdnf mRNA, group mean (5f) (Bdnf mRNA; 1 h, fold change, 1 h vehicle 1): 2.028 | Bdnf mRNA, group mean (5f) (Bdnf mRNA; 24 h): 0.7739 | Bdnf mRNA, group mean (5f) (Bdnf mRNA; 72 h): 0.7626 | Bdnf mRNA (Bdnf mRNA; after LSD treatment): upregulated at 1 h | Bdnf mRNA, predicted (LS) mean over timepoints (5f) (Bdnf mRNA; vehicle 1.015): 1.188 | LSD binding (TrkA.TM chimera): completely abolishes LSD binding | Kd (rat TrkB (WT)): 0.656 ± 0.093 nM | h (best-fit, 1a) (rat TrkB (WT); WT, Hill slope): 1.255 | Bmax (best-fit, 1a) (rat TrkB (WT); WT, specific binding with Hill slope): 100.9 | Bmax (rat TrkB (WT); ^3H-LSD saturation, rat TrkB): 3.053 ± 0.099 pmol mg^−1 protein | Kd (human TrkB): 0.93 ± 0.414 nM | Bmax (human TrkB; ^3H-LSD saturation, human TrkB): 4.028 ± 0.326 pmol mg^−1 protein | Bmax (specific binding with Hill slope, best-fit) (human TrkB; ext fig 1a, TRKB.wt, n=2): 111.1 | h (Hill slope, best-fit) (human TrkB; ext fig 1a, TRKB.wt, n=2): 0.4722
